Laboratory results taken from US7962204B2 (priority 2001, dated 2011).

Tested on: behaviorally-diagnosed psychiatric conditions (DSM categories)
Parameters: species or system human
Settings: in vivo
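Wherever use code of agent in 301.7 Antisocial Personality Disorder is given: N marks novel agent found effective in subject subgroups.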
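Wherever use code of agent in 301.83 Borderline Personality Disorder is given: N marks novel agent found effective in subject subgroups.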
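Wherever use in 307.50 Eating Disorder NOS is given: N marks novel agent found effective in subject subgroups.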
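Wherever use in 307.51 Bulimia Nervosa is given: N marks novel agent found effective in subject subgroups.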

COC(=O)C(c1ccccc1)C1CCCCN1 (stereo not shown) [METHYLPHENIDATE]
N: use code of agent in 294.9 Cognitive Disorder NOS | use code of agent in 296.90 Mood Disorder NOS | use code of agent in 300.4 Dysthymic Disorder | use code of agent in 301.13 Cyclothymic Disorder | use code of agent in 307.1 Anorexia Nervosa | use code of agent in 307.50 Eating Disorder NOS | use code of agent in 307.51 Bulimia Nervosa | use code of agent in 312.30 Impulse-Control Disorder NOS | use code of agent in 312.31 Pathological Gambling | use code of agent in 312.39 Trichotillomania | use code of agent in 312.8 Conduct Disorder | use code of agent in 313.81 Oppositional Defiant Disorder | use code of agent in 315.9 Learning Disorder NOS

NC12CC3CC(CC(C3)C1)C2 [AMANTADINE]
N: use code of agent in 312.30 Impulse-Control Disorder NOS | use code of agent in 312.8 Conduct Disorder | use code of agent in 313.81 Oppositional Defiant Disorder | use code of agent in 315.9 Learning Disorder NOS | use code of agent in Attention-Deficit/Hyperactivity Disorder

CC(NC(C)(C)C)C(=O)c1cccc(Cl)c1 (stereo not shown) [BUPROPRION (LONG ACTING)]
N: use code of agent in 301.20 Schizoid Personality Disorder | use code of agent in 301.22 Schizotypal Personality Disorder | use code of agent in 301.4 Obsessive-Compulsive Personality Disorder | use code of agent in 301.50 Histrionic Personality Disorder | use code of agent in 301.6 Dependent Personality Disorder | use code of agent in 301.7 Antisocial Personality Disorder | use code of agent in 301.82 Avoidant Personality Disorder | use code of agent in 301.83 Borderline Personality Disorder | use code of agent in 302.71 Hypoactive Sexual Desire Disorder | use code of agent in 307.42 Primary Insomnia | use code of agent in 311 Depressive Disorder NOS | use code of agent in 316 Psychological Factors Affecting Medical Condition, Atypical Asthma | use code of agent in 316 Psychological Factors Affecting Medical Condition, Neurodermatitis | use code of agent in Bipolar I Disorder | use in 294.8 Amnestic Disorder | use in 294.9 Cognitive Disorder NOS | use in 296.89 Bipolar II Disorder | use in 299.80 Pervasive Developmental Disorder NOS | use in 300.00 Anxiety Disorder NOS | use in 300.02 Generalized Anxiety Disorder | use in 300.22 Agoraphobia Without History of Panic Disorder | use in 300.23 Social Phobia | use in 300.29 Specific Phobia | use in 300.3 Obsessive-Compulsive Disorder | use in 301.13 Cyclothymic Disorder | use in 307.1 Anorexia Nervosa | use in 307.50 Eating Disorder NOS | use in 307.51 Bulimia Nervosa | use in 307.9 Communication Disorder NOS | use in 309.21 Separation Anxiety Disorder | use in 309.81 Posttraumatic Stress Disorder | use in 312.30 Impulse-Control Disorder NOS | use in 312.31 Pathological Gambling | use in 312.34 Intermittent Explosive Disorder | use in 312.39 Trichotillomania | use in 312.8 Conduct Disorder | use in 313.81 Oppositional Defiant Disorder | use in 315.9 Learning Disorder NOS | use in Attention-Deficit/Hyperactivity Disorder | use in Panic Disorder | use of the agent in the diagnostic category (C = common use; N = novel use from rEEG features)

N=C(N)NC(=O)Cc1c(Cl)cccc1Cl [[…]]
N: use code of agent in 316 Psychological Factors Affecting Medical Condition, Hypertensive Disorder NOS

NC1=NC(=O)C(c2ccccc2)O1 (stereo not shown) [PEMOLINE]
N: use code of agent in 294.8 Amnestic Disorder | use code of agent in 294.9 Cognitive Disorder NOS | use code of agent in 296.90 Mood Disorder NOS | use code of agent in 300.4 Dysthymic Disorder | use code of agent in 301.13 Cyclothymic Disorder | use code of agent in 307.1 Anorexia Nervosa | use code of agent in 307.50 Eating Disorder NOS | use code of agent in 307.51 Bulimia Nervosa | use code of agent in 312.30 Impulse-Control Disorder NOS | use code of agent in 312.31 Pathological Gambling | use code of agent in 312.8 Conduct Disorder | use code of agent in 313.81 Oppositional Defiant Disorder | use code of agent in 315.9 Learning Disorder NOS | use of agent in DSM category (C/N code)

Nc1nnc(-c2cccc(Cl)c2Cl)c(N)n1 [LAMOTRIGINE]
N: use in Dementia of the Alzheimer's Type

Clc1cccc(Cl)c1N=C1NCCN1 [CLONIDINE]
N: use code of agent in 316 Psychological Factors Affecting Medical Condition, Hypertensive Disorder NOS

CN[C@@H](C)Cc1ccccc1 [METHAMPHETAMINE]
N: use code of agent in 294.9 Cognitive Disorder NOS | use code of agent in 296.90 Mood Disorder NOS | use code of agent in 300.4 Dysthymic Disorder | use code of agent in 301.13 Cyclothymic Disorder | use code of agent in 307.1 Anorexia Nervosa | use code of agent in 307.51 Bulimia Nervosa | use code of agent in 312.30 Impulse-Control Disorder NOS | use code of agent in 312.31 Pathological Gambling | use code of agent in 312.39 Trichotillomania | use code of agent in 312.8 Conduct Disorder | use code of agent in 313.81 Oppositional Defiant Disorder | use code of agent in 315.9 Learning Disorder NOS

N[C@@H]1C[C@H]1c1ccccc1 [PARNATE, reference compound]
N: use code of agent in 301.20 Schizoid Personality Disorder | use code of agent in 301.4 Obsessive-Compulsive Personality Disorder | use code of agent in 301.50 Histrionic Personality Disorder | use code of agent in 301.6 Dependent Personality Disorder | use code of agent in 301.7 Antisocial Personality Disorder | use code of agent in 301.82 Avoidant Personality Disorder | use code of agent in 301.83 Borderline Personality Disorder | use code of agent in 302.71 Hypoactive Sexual Desire Disorder | use code of agent in 307.42 Primary Insomnia | use code of agent in 311 Depressive Disorder NOS | use code of agent in 316 Psychological Factors Affecting Medical Condition, Atypical Asthma | use code of agent in 316 Psychological Factors Affecting Medical Condition, Neurodermatitis | use code of agent in Bipolar I Disorder | use code of agent in Major Depressive Disorder, Recurrent | use code of agent in Major Depressive Disorder, Single Episode | use in 294.9 Cognitive Disorder NOS | use in 296.89 Bipolar II Disorder | use in 296.90 Mood Disorder NOS | use in 299.80 Pervasive Developmental Disorder NOS | use in 300.00 Anxiety Disorder NOS | use in 300.02 Generalized Anxiety Disorder | use in 300.22 Agoraphobia Without History of Panic Disorder | use in 300.23 Social Phobia | use in 300.29 Specific Phobia | use in 300.3 Obsessive-Compulsive Disorder | use in 300.4 Dysthymic Disorder | use in 301.13 Cyclothymic Disorder | use in 307.1 Anorexia Nervosa | use in 307.50 Eating Disorder NOS | use in 307.51 Bulimia Nervosa | use in 309.21 Separation Anxiety Disorder | use in 309.81 Posttraumatic Stress Disorder | use in 312.30 Impulse-Control Disorder NOS | use in 312.31 Pathological Gambling | use in 312.34 Intermittent Explosive Disorder | use in 312.39 Trichotillomania | use in 312.8 Conduct Disorder | use in 313.81 Oppositional Defiant Disorder | use in 315.9 Learning Disorder NOS | use in Attention-Deficit/Hyperactivity Disorder | use in Panic Disorder | use of the agent in the diagnostic category (C = common use; N = novel use from rEEG features)

N[C@@H](Cc1ccc(O)cc1)C(=O)O [TYROSINE]
N: use in Dementia of the Alzheimer's Type

C[C@H](N)Cc1ccccc1 [DEXEDRINE]
N: use code of agent in 294.9 Cognitive Disorder NOS | use code of agent in 296.90 Mood Disorder NOS | use code of agent in 300.4 Dysthymic Disorder | use code of agent in 301.13 Cyclothymic Disorder | use code of agent in 307.1 Anorexia Nervosa | use code of agent in 307.50 Eating Disorder NOS | use code of agent in 307.51 Bulimia Nervosa | use code of agent in 312.30 Impulse-Control Disorder NOS | use code of agent in 312.31 Pathological Gambling | use code of agent in 312.39 Trichotillomania | use code of agent in 312.8 Conduct Disorder | use code of agent in 313.81 Oppositional Defiant Disorder | use code of agent in 315.9 Learning Disorder NOS

GABA [reference compound]
N: agent found effective in 300.00 Anxiety Disorder NOS | agent found effective in 300.02 Generalized Anxiety Disorder | agent found effective in 300.22 Agoraphobia Without History of Panic Disorder | agent found effective in 300.23 Social Phobia | agent found effective in 300.29 Specific Phobia | agent found effective in 300.3 Obsessive-Compulsive Disorder | agent found effective in 309.81 Posttraumatic Stress Disorder | agent found effective in Panic Disorder | use code of agent in 301.4 Obsessive-Compulsive Personality Disorder | use code of agent in 301.7 Antisocial Personality Disorder | use code of agent in 301.82 Avoidant Personality Disorder | use code of agent in 301.83 Borderline Personality Disorder | use code of agent in 307.42 Primary Insomnia | use code of agent in 316 Psychological Factors Affecting Medical Condition, Neurodermatitis | use in 300.00 Anxiety Disorder NOS | use in 300.02 Generalized Anxiety Disorder | use in 300.22 Agoraphobia Without History of Panic Disorder | use in 300.23 Social Phobia | use in 300.29 Specific Phobia | use in 300.3 Obsessive-Compulsive Disorder | use in 307.1 Anorexia Nervosa | use in 307.22 Chronic Motor or Vocal Tic Disorder | use in 307.50 Eating Disorder NOS | use in 307.51 Bulimia Nervosa | use in 309.21 Separation Anxiety Disorder | use in 309.81 Posttraumatic Stress Disorder | use in 313.81 Oppositional Defiant Disorder | use in Panic Disorder | use of the agent in the diagnostic category (C = common use; N = novel use from rEEG features)

CC(C)(N)Cc1ccccc1 [PHENTERMINE]
N: use code of agent in 294.9 Cognitive Disorder NOS | use code of agent in 300.4 Dysthymic Disorder | use code of agent in 307.50 Eating Disorder NOS | use code of agent in 312.8 Conduct Disorder | use of agent in DSM category (C/N code)
